Values quoted from earlier work, collected in US20090005322A1, “Physiologically- Active Composition Based on Collagen” (priority 2004, published 2009).

System: human peripheral polymorphonuclear leucocytes

C[C@@H]1O[C@@H](O[C@@H]2[C@@H](O)[C@H](OCCc3ccc(O)c(O)c3)O[C@H](CO)[C@H]2OC(=O)/C=C/c2ccc(O)c(O)c2)[C@H](O)[C@H](O)[C@H]1O [Acteoside, acteoside]
formation of eicosatetraenoic acid derivatives (5-HET): inhibits
formation of leucotriene B4: inhibits
